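Five compound concentrations were applied to cells in 96-well plates for 48 hours; endpoints were derived by simple linear interpolation of the resulting dose-response curve. The concentration for 50% growth inhibition is given as GI50.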 The source made the active and inactive calls. No stated cut-off is given here; in the data, active = GI50 up to about 1.1 µM and inactive = higher.
Key:
Assay in all cases: NCI anticancer screen, dose series, 48 h
786-0 = test system: 786-0
BT-549 = test system: BT-549
COLO 205 = test system: COLO 205
HCC 2998 = test system: HCC 2998
HCT-15 = test system: HCT-15
HT-29 = test system: HT-29
Hs-578T = test system: Hs-578T
KM12 = test system: KM12
LOX IMVI = test system: LOX IMVI
MDA-MB-435 = test system: MDA-MB-435
Malme-3M = test system: Malme-3M
NCI-H23 = test system: NCI-H23
OVCAR-3 = test system: OVCAR-3
OVCAR-5 = test system: OVCAR-5
OVCAR-8 = test system: OVCAR-8
SK-MEL-28 = test system: SK-MEL-28
SNB-19 = test system: SNB-19
UACC-62 = test system: UACC-62
UO-31 = test system: UO-31
PC-3 = test system: PC-3

SMILES	GI50 (786-0)	GI50 (BT-549)	GI50 (COLO 205)	GI50 (HCC 2998)	GI50 (HCT-15) [µM]	GI50 (HT-29)	GI50 (Hs-578T)	GI50 (KM12)	GI50 (LOX IMVI)	GI50 (MDA-MB-435)	GI50 (Malme-3M)	GI50 (NCI-H23)	GI50 (OVCAR-3)	GI50 (OVCAR-5)	GI50 (OVCAR-8)	GI50 (SK-MEL-28)	GI50 (SNB-19)	GI50 (UACC-62)	GI50 (UO-31)	GI50 (PC-3)
Cc1c2c(c(C)c3c4c(oc13)CCCC4)C=NCC2	35.2 µM (inactive)	16.8 µM (inactive)	19.5 µM (inactive)	21.1 µM (inactive)	13.9	6.64 µM (inactive)	17 µM (inactive)	16.1 µM (inactive)	20.5 µM (inactive)	14.4 µM (inactive)	16 µM (inactive)	16.2 µM (inactive)	14.9 µM (inactive)	16.8 µM (inactive)	10.6 µM (inactive)	18.9 µM (inactive)	22.8 µM (inactive)	15 µM (inactive)	13.1 µM (inactive)	–
Cn1c(-c2ccccc2)cc(-c2cccs2)c1-c1ccsc1	> 100 µM (inactive)	> 100 µM (inactive)	> 100 µM (inactive)	> 100 µM (inactive)	> 100	> 100 µM (inactive)	> 100 µM (inactive)	80.5 µM (inactive)	> 100 µM (inactive)	> 100 µM (inactive)	–	> 100 µM (inactive)	> 100 µM (inactive)	> 100 µM (inactive)	> 100 µM (inactive)	–	> 100 µM (inactive)	> 100 µM (inactive)	> 100 µM (inactive)	> 100 µM (inactive)
[O-][n+]1c(CN2CCCCC2)nc2cccc3c2c1-c1ccccc1-3	16.7 µM (inactive)	48.3 µM (inactive)	16.9 µM (inactive)	15 µM (inactive)	26.9	17.3 µM (inactive)	–	26.4 µM (inactive)	19.4 µM (inactive)	32.1 µM (inactive)	14.3 µM (inactive)	20.3 µM (inactive)	21.6 µM (inactive)	21.3 µM (inactive)	22.8 µM (inactive)	68.5 µM (inactive)	23.9 µM (inactive)	16.4 µM (inactive)	11.9 µM (inactive)	31.3 µM (inactive)
CCN(CC)CCNc1ccc2nnn3c4ccc(OCCN(CC)CC)cc4c(=O)c1c23	21.6 µM (inactive)	> 100 µM (inactive)	30.6 µM (inactive)	> 100 µM (inactive)	64.6	18.5 µM (inactive)	> 100 µM (inactive)	32.3 µM (inactive)	–	49.5 µM (inactive)	–	88.5 µM (inactive)	–	> 100 µM (inactive)	27.9 µM (inactive)	> 100 µM (inactive)	48.5 µM (inactive)	> 100 µM (inactive)	89.9 µM (inactive)	–
O=C1c2ccccc2-c2nc(/C=C/c3ccccc3)cc3c2c1nc1ccccc13	30.5 µM (inactive)	36.8 µM (inactive)	20.5 µM (inactive)	20.4 µM (inactive)	2.52	30.8 µM (inactive)	12.3 µM (inactive)	18.5 µM (inactive)	–	13.9 µM (inactive)	–	12.1 µM (inactive)	0.265 µM (active)	> 100 µM (inactive)	24.3 µM (inactive)	23.1 µM (inactive)	80.5 µM (inactive)	9.82 µM (inactive)	29.6 µM (inactive)	4.56 µM (inactive)
COC(=O)C1=C(O)C(C(=O)OC)[C@@]2(O)[C@@H](C(=O)OC)[C@H](C)[C@@H](C)[C@@H]1[C@@H]2C(=O)OC (some centres undefined)	–	37.5 µM (inactive)	–	37.8 µM (inactive)	41.5	55.7 µM (inactive)	27.4 µM (inactive)	34.8 µM (inactive)	51.9 µM (inactive)	17.9 µM (inactive)	83.2 µM (inactive)	75.2 µM (inactive)	27 µM (inactive)	> 100 µM (inactive)	–	> 100 µM (inactive)	> 100 µM (inactive)	55.5 µM (inactive)	38.5 µM (inactive)	–
O=[N+]([O-])c1ccc(S(=O)(=O)Cc2ccccc2)c2nonc12	19.6 µM (inactive)	18.5 µM (inactive)	16.4 µM (inactive)	–	22.3	18.7 µM (inactive)	24.3 µM (inactive)	19.5 µM (inactive)	19.2 µM (inactive)	19.2 µM (inactive)	17.9 µM (inactive)	19.1 µM (inactive)	20.8 µM (inactive)	58.2 µM (inactive)	22.1 µM (inactive)	20.5 µM (inactive)	37 µM (inactive)	17.8 µM (inactive)	29.2 µM (inactive)	17.8 µM (inactive)
O=C1OC(=O)C2=C1C(c1cccs1)C=C(c1cccnc1)N2c1ccncc1 (centres undefined)	17.3 µM (inactive)	15.5 µM (inactive)	17.5 µM (inactive)	14.1 µM (inactive)	14.2	16.8 µM (inactive)	18.7 µM (inactive)	13.4 µM (inactive)	13.2 µM (inactive)	20 µM (inactive)	–	17.6 µM (inactive)	13.4 µM (inactive)	12.2 µM (inactive)	21.6 µM (inactive)	24.3 µM (inactive)	18 µM (inactive)	19.9 µM (inactive)	15.6 µM (inactive)	12.2 µM (inactive)
COCN1C(=O)[C@@H]2CCCN2C(=O)c2ccc(N)cc21	> 100 µM (inactive)	> 100 µM (inactive)	> 100 µM (inactive)	> 100 µM (inactive)	> 100	> 100 µM (inactive)	> 100 µM (inactive)	> 100 µM (inactive)	> 100 µM (inactive)	> 100 µM (inactive)	–	> 100 µM (inactive)	> 100 µM (inactive)	> 100 µM (inactive)	> 100 µM (inactive)	> 100 µM (inactive)	> 100 µM (inactive)	> 100 µM (inactive)	> 100 µM (inactive)	> 100 µM (inactive)
CC(=O)NC1c2ccccc2C(C)(C)C12CCC1(CC2)OCCO1 (centres undefined)	> 100 µM (inactive)	> 100 µM (inactive)	> 100 µM (inactive)	> 100 µM (inactive)	> 100	> 100 µM (inactive)	> 100 µM (inactive)	> 100 µM (inactive)	> 100 µM (inactive)	–	98.6 µM (inactive)	> 100 µM (inactive)	–	> 100 µM (inactive)	> 100 µM (inactive)	> 100 µM (inactive)	> 100 µM (inactive)	> 100 µM (inactive)	> 100 µM (inactive)	> 100 µM (inactive)
CCOC(=O)C(NC(=O)Nc1ccccc1F)(OC)C(F)(F)F (centres undefined)	> 100 µM (inactive)	> 100 µM (inactive)	> 100 µM (inactive)	> 100 µM (inactive)	> 100	> 100 µM (inactive)	> 100 µM (inactive)	–	> 100 µM (inactive)	> 100 µM (inactive)	–	> 100 µM (inactive)	–	> 100 µM (inactive)	> 100 µM (inactive)	> 100 µM (inactive)	> 100 µM (inactive)	–	> 100 µM (inactive)	> 100 µM (inactive)
COc1ccc(C2C3CCc4ccccc4C3=NN2S(=O)(=O)c2ccc(Cl)cc2)cc1 (centres undefined)	6.93 µM (inactive)	44.7 µM (inactive)	6.01 µM (inactive)	–	1.8	18.1 µM (inactive)	33 µM (inactive)	7.08 µM (inactive)	22.8 µM (inactive)	2.07 µM (inactive)	59.3 µM (inactive)	33.3 µM (inactive)	16.6 µM (inactive)	47.6 µM (inactive)	41.6 µM (inactive)	–	39.2 µM (inactive)	13.1 µM (inactive)	22.6 µM (inactive)	17.1 µM (inactive)
CC(=O)NC(Cc1ccccc1)NC(=O)O (centres undefined)	> 100 µM (inactive)	> 100 µM (inactive)	> 100 µM (inactive)	> 100 µM (inactive)	> 100	> 100 µM (inactive)	–	> 100 µM (inactive)	> 100 µM (inactive)	> 100 µM (inactive)	> 100 µM (inactive)	> 100 µM (inactive)	> 100 µM (inactive)	> 100 µM (inactive)	> 100 µM (inactive)	> 100 µM (inactive)	> 100 µM (inactive)	> 100 µM (inactive)	> 100 µM (inactive)	> 100 µM (inactive)
CC(C)(C)c1cc(C(CO)OCCOCCO)cc(C(C)(C)C)c1O (centres undefined)	> 100 µM (inactive)	> 100 µM (inactive)	> 100 µM (inactive)	–	> 100	> 100 µM (inactive)	> 100 µM (inactive)	> 100 µM (inactive)	> 100 µM (inactive)	> 100 µM (inactive)	> 100 µM (inactive)	> 100 µM (inactive)	> 100 µM (inactive)	> 100 µM (inactive)	> 100 µM (inactive)	> 100 µM (inactive)	> 100 µM (inactive)	> 100 µM (inactive)	> 100 µM (inactive)	> 100 µM (inactive)
NC(=O)c1c(NC=O)ncn1C1OCC(O)C(O)C1O (centres undefined)	> 100 µM (inactive)	> 100 µM (inactive)	> 100 µM (inactive)	–	> 100	> 100 µM (inactive)	> 100 µM (inactive)	> 100 µM (inactive)	> 100 µM (inactive)	> 100 µM (inactive)	> 100 µM (inactive)	> 100 µM (inactive)	> 100 µM (inactive)	> 100 µM (inactive)	> 100 µM (inactive)	–	> 100 µM (inactive)	> 100 µM (inactive)	> 100 µM (inactive)	> 100 µM (inactive)
C[Si](C)(C)C#CCOC=C1CC1	47.1 µM (inactive)	> 100 µM (inactive)	> 100 µM (inactive)	> 100 µM (inactive)	> 100	> 100 µM (inactive)	> 100 µM (inactive)	> 100 µM (inactive)	28.6 µM (inactive)	–	> 100 µM (inactive)	> 100 µM (inactive)	–	> 100 µM (inactive)	> 100 µM (inactive)	> 100 µM (inactive)	> 100 µM (inactive)	> 100 µM (inactive)	> 100 µM (inactive)	> 100 µM (inactive)

Source: ChEMBL document CHEMBL1201862, “PubChem BioAssay data set” (2004)
